Results published in patent publication US20060069132A1, “Azolecarboxamide herbicides” (priority 2004, published 2006).

What was measured:
pigweed = assay: Test B pre-/postemergence herbicide test; format: in vivo, Amaranthus retroflexus; conditions: for Pigweed plant response rating: postemergence
How it was run: (§1)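 Evaluation is visual, comparing treated with control plants on a scale where 0 means no effect and 100 means full control. Treatments were preemergence, or postemergence on seedlings 2–18 cm tall, and held 13–15 days in the greenhouse.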

velvetleaf = assay: Test B pre-/postemergence herbicide test; format: in vivo, Abutilon theophrasti; conditions: for Velvetleaf plant response rating: postemergence
How it was run: as §1

Surinam grass = assay: Test B pre-/postemergence herbicide test; format: in vivo, Urochloa decumbens; conditions: for Surinam Grass plant response rating: postemergence
How it was run: as §1

giant foxtail = assay: Test B pre-/postemergence herbicide test; format: in vivo, Setaria faberi
How it was run: as §1

large crabgrass = assay: Test B pre-/postemergence herbicide test; format: in vivo, Digitaria sanguinalis
How it was run: as §1

wild oat = assay: Test B postemergence herbicide test; format: in vivo, Avena fatua; conditions: for Oat, Wild plant response rating: postemergence
How it was run: (§2)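 After treating 2-leaf paddy plants or 2–18 cm postemergence plants (1 to 4 leaves) with formulated chemical, researchers kept them in a greenhouse for 13–15 days. Effects were judged visually versus controls: 0 indicates none, 100 total control.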

lambsquarters = assay: Test B pre-/postemergence herbicide test; format: in vivo, Chenopodium album; conditions: for Lambsquarters plant response rating: postemergence
How it was run: as §1

wheat = assay: Test B postemergence herbicide test; format: in vivo, Triticum aestivum; design: key to Wheat plant response rating: 0 = no effect, 100 = complete control; conditions: for Wheat plant response rating: postemergence
How it was run: as §2

barnyardgrass [1] = assay: Test B pre-/postemergence herbicide test; format: in vivo, Echinochloa crus-galli
How it was run: (§3)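 Plants compared with untreated controls 13–15 days post-treatment and given a visual 0–100 injury score. Applications: preemergence to seeds; postemergence at 1- to 4-leaf (2–18 cm); paddy species flooded, 2-leaf stage. Vehicle non-phytotoxic, surfactant included.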

[2] = test system: small flower umbrella sedge; assay: Test B flooded paddy test; format: in vivo, Cyperus difformis; conditions: 1000 g ai/ha, scale 0 to 100 (0 no effect, 100 complete control)
How it was run: (§4)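 Formulated test chemicals went onto postemergence plants measuring 2 to 18 cm, at one to four leaves. For the paddy assay, species had reached two leaves. Scoring took place 13–15 days later by eye, relative to untreated plants, using 0 for no effect up to 100 for full control.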

rice = assay: Test B flooded paddy test; format: in vivo, Oryza sativa; conditions: 1000 g ai/ha, scale 0 to 100 (0 no effect, 100 complete control)
How it was run: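 Each value is a visual 0–100 response rating taken against controls 13 to 15 days after treatment in the greenhouse. Plants received formulated chemical postemergence at the 1- to 4-leaf stage or, in flooded paddy, at the 2-leaf stage.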

ducksalad = assay: Test B flooded paddy test; format: in vivo, Heteranthera limosa; conditions: 1000 g ai/ha, scale 0 to 100 (0 no effect, 100 complete control)
How it was run: as §4

morningglory = assay: Test B pre-/postemergence herbicide test; format: in vivo, Ipomoea coccinea; conditions: for Morningglory plant response rating: postemergence
How it was run: as §3

cocklebur = assay: Test B pre-/postemergence herbicide test; format: in vivo, Xanthium strumarium
How it was run: as §3

barnyardgrass [3] = assay: Test B flooded paddy test; format: in vivo, Echinochloa crus-galli; conditions: 1000 g ai/ha, scale 0 to 100 (0 no effect, 100 complete control)
How it was run: as §4

[4] = 125 g ai/ha, 0 = no effect, 100 = complete control, preemergence
[5] = 500 g ai/ha, visual rating 0-100, 0 no effect, 100 complete control, preemergence
[6] = 125 g ai/ha, visual rating, scale 0 (no effect) to 100 (complete control)
[7] = 500 g ai/ha, visual rating, scale 0 (no effect) to 100 (complete control)
[8] = postemergence, 125 g ai/ha, visual rating, scale 0 (no effect) to 100 (complete control)
[9] = postemergence, 500 g ai/ha, visual rating, scale 0 (no effect) to 100 (complete control)
[10] = Postemergence, 500 g ai/ha, visual rating after 13 to 15 days, scale 0 (no effect) to 100 (complete control)
[11] = preemergence, 125 g ai/ha, 0 to 100 scale, 0 is no effect, 100 is complete control
[12] = Preemergence, 500 g ai/ha, scale 0 to 100
[13] = 500 g ai/ha, visual rating, 0 = no effect, 100 = complete control, preemergence
[14] = 500 g ai/ha, scale 0 to 100, 0 is no effect, 100 is complete control
[15] = postemergence, 500 g ai/ha, scale 0 to 100, 0 is no effect, 100 is complete control

Q: `C=CCNC(=O)c1cccc(NC(=O)c2sc(C(C)(C)C)nc2C)c1` [Compound 202] was tested. Which “Pigweed plant response rating (0 to 100 scale)” value (pigweed; [4]) did it give?
A: 10

Q: And the “Plant response rating, Pigweed” value (pigweed; [5])?
A: 90

Q: What about the “Pigweed plant response rating” value (pigweed; [6]) of the same compound?
A: 30

Q: What about the “Pigweed plant response rating” value (pigweed; [7]) of the same compound?
A: 40

Q: What about the “Velvetleaf plant response rating (0 to 100 scale)” value (velvetleaf; [4]) of the same compound?
A: 10

Q: And the “Plant response rating, Velvetleaf” value (velvetleaf; [5])?
A: 20

Q: And the “Velvetleaf plant response rating” value (velvetleaf; [6])?
A: 10

Q: And the “Velvetleaf plant response rating” value (velvetleaf; [7])?
A: 30

Q: What about the “Surinam Grass plant response rating (0 to 100 scale)” value (Surinam grass; [4]) of the same compound?
A: 0

Q: And the “Plant response rating, Surinam Grass” value (Surinam grass; [5])?
A: 60

Q: What about the “Surinam Grass plant response rating” value (Surinam grass; [6]) of the same compound?
A: 10

Q: And the “Surinam Grass plant response rating” value (Surinam grass; [7])?
A: 10

Q: And the “Foxtail, Giant plant response rating (0 to 100 scale)” value (giant foxtail; [4])?
A: 10

Q: And the “Plant response rating, Foxtail, Giant” value (giant foxtail; [5])?
A: 90

Q: And the “Foxtail, Giant plant response rating” value (giant foxtail; [8])?
A: 10

Q: And the “Foxtail, Giant plant response rating” value (giant foxtail; [9])?
A: 10

Q: What about the “Crabgrass, Large plant response rating (0 to 100 scale)” value (large crabgrass; [4]) of the same compound?
A: 60

Q: What about the “Plant response rating, Crabgrass, Large” value (large crabgrass; [5]) of the same compound?
A: 100

Q: And the “Crabgrass, Large plant response rating” value (large crabgrass; [8])?
A: 0

Q: What about the “Crabgrass, Large plant response rating” value (large crabgrass; [9]) of the same compound?
A: 10

Q: And the “Oat, Wild plant response rating” value (wild oat; [6])?
A: 10

Q: What about the “Oat, Wild plant response rating” value (wild oat; [7]) of the same compound?
A: 10

Q: And the “Lambsquarters plant response rating (0 to 100 scale)” value (lambsquarters; [4])?
A: 30

Q: What about the “Plant response rating, Lambsquarters” value (lambsquarters; [5]) of the same compound?
A: 100

Q: What about the “Lambsquarters plant response rating” value (lambsquarters; [6]) of the same compound?
A: 50

Q: And the “Lambsquarters plant response rating” value (lambsquarters; [7])?
A: 50

Q: And the “Wheat plant response rating” value (wheat; [6])?
A: 0

Q: What about the “Wheat plant response rating” value (wheat; [7]) of the same compound?
A: 0

Q: What about the “Barnyardgrass plant response rating (0 to 100 scale)” value (barnyardgrass [1]; [4]) of the same compound?
A: 20

Q: And the “Plant response rating, Barnyardgrass” value (barnyardgrass [1]; [5])?
A: 90

Q: What about the “Barnyardgrass plant response rating” value (barnyardgrass [1]; [8]) of the same compound?
A: 0

Q: And the “Barnyardgrass plant response rating” value (barnyardgrass [1]; [9])?
A: 0

Q: What about the “Sedge, Umbrella plant response rating” value ([2]; visual rating, 13 to 15 days) of the same compound?
A: 50

Q: And the “Rice plant response rating” value (rice; visual rating, 13 to 15 days)?
A: 30

Q: And the “Ducksalad plant response rating” value (ducksalad; visual rating, 13 to 15 days)?
A: 60

Q: What about the “Morningglory plant response rating (0 to 100 scale)” value (morningglory; [4]) of the same compound?
A: 0

Q: What about the “Plant response rating, Morningglory” value (morningglory; [5]) of the same compound?
A: 30

Q: What about the “Morningglory plant response rating” value (morningglory; [6]) of the same compound?
A: 20

Q: And the “Morningglory plant response rating” value (morningglory; [7])?
A: 40

Q: And the “Cocklebur plant response rating (0 to 100 scale)” value (cocklebur; [4])?
A: 0

Q: What about the “Plant response rating, Cocklebur” value (cocklebur; [5]) of the same compound?
A: 10

Q: And the “Cocklebur plant response rating” value (cocklebur; [8])?
A: 30

Q: And the “Cocklebur plant response rating” value (cocklebur; [9])?
A: 40

Q: What about the “Barnyardgrass plant response rating” value (barnyardgrass [3]; visual rating, 13 to 15 days) of the same compound?
A: 40

Q: What does the source list for `CCn1nc(C(C)(C)C)cc1C(=O)Nc1ccc(F)c(C(=O)NCCF)c1` [Compound 60]?
A: Plant response rating, Pigweed (pigweed; [10]): 70; Pigweed plant response rating (pigweed; [6]): 70; Plant response rating, Pigweed (pigweed; [11]): 90; Plant response rating, Velvetleaf (velvetleaf; [10]): 60; Velvetleaf plant response rating (velvetleaf; [6]): 20; Plant response rating, Velvetleaf (velvetleaf; [11]): 10; Plant response rating, Surinam Grass (Surinam grass; [10]): 20; Surinam Grass plant response rating (Surinam grass; [6]): 10; Plant response rating, Surinam Grass (Surinam grass; [11]): 10; Plant response rating, Foxtail, Giant (giant foxtail; [10]): 20; Foxtail, Giant plant response rating (giant foxtail; [12]): 100; Foxtail, Giant plant response rating (giant foxtail; [8]): 10; Plant response rating, Foxtail, Giant (giant foxtail; [11]): 40; Plant response rating, Crabgrass, Large (large crabgrass; [10]): 20; Crabgrass, Large plant response rating (large crabgrass; [12]): 100; Crabgrass, Large plant response rating (large crabgrass; [8]): 10; Plant response rating, Crabgrass, Large (large crabgrass; [11]): 90; Plant response rating, Oat, Wild (wild oat; [10]): 20; Oat, Wild plant response rating (wild oat; [6]): 20; Plant response rating, Lambsquarters (lambsquarters; [10]): 90; Lambsquarters plant response rating (lambsquarters; [6]): 80; Plant response rating, Lambsquarters (lambsquarters; [11]): 90; Plant response rating, Wheat (wheat; [10]): 0; Wheat plant response rating (wheat; [6]): 0; Plant response rating, Barnyardgrass (barnyardgrass [1]; [10]): 10; Barnyardgrass plant response rating (barnyardgrass [1]; [12]): 100; Barnyardgrass plant response rating (barnyardgrass [1]; [8]): 10; Plant response rating, Barnyardgrass (barnyardgrass [1]; [11]): 50; Sedge, Umbrella plant response rating ([2]; visual rating, 13 to 15 days): 60; Rice plant response rating (rice; visual rating, 13 to 15 days): 50; Ducksalad plant response rating (ducksalad; visual rating, 13 to 15 days): 70; Plant response rating, Morningglory (morningglory; [10]): 20; Morningglory plant response rating (morningglory; [6]): 10; Plant response rating, Morningglory (morningglory; [11]): 10; Plant response rating, Cocklebur (cocklebur; [10]): 70; Cocklebur plant response rating (cocklebur; [12]): 0; Cocklebur plant response rating (cocklebur; [8]): 40; Plant response rating, Cocklebur (cocklebur; [11]): 0; Barnyardgrass plant response rating (barnyardgrass [3]; visual rating, 13 to 15 days): 60

Q: Which results are given for `CCn1nc(C(C)(C)C)cc1C(=O)Nc1cccc(OC(F)(F)F)c1` [Compound 272]?
A: Pigweed plant response rating (0 to 100 scale) (pigweed; [4]): 90; Plant response rating, Pigweed (pigweed; [13]): 100; Pigweed plant response rating (pigweed; [6]): 100; Pigweed plant response rating (pigweed; [14]): 100; Velvetleaf plant response rating (0 to 100 scale) (velvetleaf; [4]): 10; Plant response rating, Velvetleaf (velvetleaf; [13]): 50; Velvetleaf plant response rating (velvetleaf; [6]): 50; Velvetleaf plant response rating (velvetleaf; [14]): 100; Surinam Grass plant response rating (0 to 100 scale) (Surinam grass; [4]): 10; Plant response rating, Surinam Grass (Surinam grass; [13]): 70; Surinam Grass plant response rating (Surinam grass; [6]): 10; Surinam Grass plant response rating (Surinam grass; [14]): 60; Foxtail, Giant plant response rating (0 to 100 scale) (giant foxtail; [4]): 30; Plant response rating, Foxtail, Giant (giant foxtail; [13]): 90; Foxtail, Giant plant response rating (giant foxtail; [8]): 10; Foxtail, Giant plant response rating (giant foxtail; [15]): 30; Crabgrass, Large plant response rating (0 to 100 scale) (large crabgrass; [4]): 80; Plant response rating, Crabgrass, Large (large crabgrass; [13]): 100; Crabgrass, Large plant response rating (large crabgrass; [8]): 10; Crabgrass, Large plant response rating (large crabgrass; [15]): 70; Oat, Wild plant response rating (wild oat; [6]): 60; Oat, Wild plant response rating (wild oat; [14]): 90; Lambsquarters plant response rating (0 to 100 scale) (lambsquarters; [4]): 100; Plant response rating, Lambsquarters (lambsquarters; [13]): 100; Lambsquarters plant response rating (lambsquarters; [6]): 100; Lambsquarters plant response rating (lambsquarters; [14]): 100; Wheat plant response rating (wheat; [6]): 20; Wheat plant response rating (wheat; [14]): 30; Barnyardgrass plant response rating (0 to 100 scale) (barnyardgrass [1]; [4]): 10; Plant response rating, Barnyardgrass (barnyardgrass [1]; [13]): 90; Barnyardgrass plant response rating (barnyardgrass [1]; [8]): 20; Barnyardgrass plant response rating (barnyardgrass [1]; [15]): 80; Sedge, Umbrella plant response rating [2]: 80; Rice plant response rating (rice): 40; Ducksalad plant response rating (ducksalad): 80; Morningglory plant response rating (0 to 100 scale) (morningglory; [4]): 0; Plant response rating, Morningglory (morningglory; [13]): 30; Morningglory plant response rating (morningglory; [6]): 90; Morningglory plant response rating (morningglory; [14]): 100; Cocklebur plant response rating (0 to 100 scale) (cocklebur; [4]): 0; Plant response rating, Cocklebur (cocklebur; [13]): 0; Cocklebur plant response rating (cocklebur; [8]): 40; Cocklebur plant response rating (cocklebur; [15]): 90; Barnyardgrass plant response rating (barnyardgrass [3]): 50
